Ends that are not written are not given here. spacer = not defined here
Assays:
HUVECs [1] = assay: Retention of HUVECs under shear stress on coated coverslips; type: cell-based, human
Protocol: The ability of the collagen modified with endothelial cell binding peptide SEQ ID NO: 4 to retain HUVECs under shear stress was analyzed as follows. Glass cover-slips were coated with peptide conjugated collagen or unmodified collagen and seeded with HUVECs. Coverslips were secured in a polycarbonate slide with six 1 cm diameter wells enabling simultaneous testing of materials. A closed loop peristaltic pump was used to expose the samples to flow conditions for 30 minutes at laminar flow rates up to 12 dynes/cm^2 in PBS containing 2% FBS. The number of cells retained on the cover slip was determined using […]-GLO (INVITORGEN) and a luminometer.

human dermal fibroblasts = assay: Fibroblast binding to peptide-modified collagen coated plates; type: cell-based; settings: for fibroblast binding compared to unmodified collagen: higher concentrations / FIG. 28 summary
Protocol: The experiment was performed according to the following procedure. Cell-binding peptide (SEQ ID NO: 4) was covalently attached to soluble collagen as described herein at Example 7. 96-well plates were coated with various amounts of unmodified or the peptide-modified collagen (177 μmol peptide/g collagen) over night at 4° C. Unbound collagen was removed and the plates were blocked for 1 h. After washing, 5,000 human dermal fibroblasts were added per well in serum-free medium for 30 min at 37° C. The plates were washed, and bound cells were detected with […]-GLO (PROMEGA) using a luminometer. At 0.0025 μg collagen, fibroblast binding was increased 11-fold for the peptide-modified collagen compared to unmodified collagen (see FIG. 28).

hMSCs [2] = assay: Adherence of hMSCs to polypropylene in presence of peptide-modified collagen; type: cell-based, human; settings: after binding in presence of the collagen
hMSCs [3] = assay: Binding of peptide-modified collagen to hMSCs, FACS with Neutravidin-PE; set-up: species or system human; settings: 20,000 hMSCs, 1 hr on ice, serial dilution from 25 μM
Protocol: In a separate experiment, cell binding peptide SEQ ID NO: 4 was covalently attached to collagen as described herein and tested for its ability to bind hMSCs using an experimental setup similar to that described above. Briefly, collagen with covalently attached SEQ ID NO: 4 peptide was serial diluted (starting from 25 μM) and mixed with 20,000 hMSCs in 2% FBS/PBS. After 1 hr incubation on ice, cells were washed twice with 2% FBS/PBS and cells bound to the collagen with covalently attached SEQ ID NO: 4 peptide were detected with Neutravidin-PE. Cells were washed, transferred into 96-well plates for FACS analysis.

ECFCs = assay: Capture of ECFCs in flow on coated coverslips (parallel plate flow chamber); type: cell-based, human; settings: 2×10^6 ECFC circulated 2 h at 37° C.
Protocol: The ability of the collagen modified with endothelial cell binding peptide SEQ ID NO: 4 to capture ECFCs in flow was analyzed as follows. Glass coverslips were coated with unmodified collagen or cell binding peptide modified-collagen and mounted in a polycarbonate parallel plate flow chamber. PBS/10% FBS was circulated through a closed 150 ml system to block the coverslips. Approximately 2×10^6 ECFC were injected into the system and were circulated for 2 h at 37° C. Coverslips were washed in PBS to remove loosely adhering cells, the remaining cells on the coverslips were lysed in CELLTITERGLO (INVITROGEN, CA), and the cells enumerated by luminescence against a standard curve.

HUVECs [4] = assay: HUVEC capture and retention on plates coated with peptide-modified collagen ([…]-GLO); type: cell-based, human
Protocol: After washing, 10,000 HUVECs were added per well in serum free medium for 30 min at 37° C. The plates were washed 3 times with PBS containing 2% FBS, and captured cells were detected with […]-GLO (INVITROGEN) using a luminometer and a standard curve. […] For FIG. 21B, the collagen was extracted in gel loading buffer, separated by PAGE, and total protein was stained with SIMPLYBLUE (INVITROGEN). […] Plates with captured HUVECs were prepared as described in FIG. 20A. […]

hMSCs [5] = assay: hMSC attachment to PEEK discs in collagen solution ([…]-GLO); type: cell-based, human; settings: 2 h at 37° C., highest concentration of collagen
Protocol: To test whether collagen having a covalently attached cell binding peptide could increase cell adhesion to PEEK discs, PEEK discs were coated with collagen and hMSC attachment was measured. Industrial-grade PEEK discs were obtained from […] POLYMERS, Inc Houston, Tex. The discs were machined with a steel punch for a 0.5 cm diameter (thickness of 0.125). Discs (n=2 per group) were coated by two methods. In the first method, the discs were incubated overnight with varying concentrations of cell binding peptide SEQ ID NO: 4-modified collagen (88.5 μmol peptide/g of collagen). The discs were washed to remove unattached peptide and collagen, and the attached biotinylated peptide was detected with Neutravidin-HRP in an ELISA assay. […] In the second method, uncoated PEEK discs were placed in a solution of unmodified or peptide-modified collagen and hMSCs. After 2 h at 37° C., discs were moved to a new plate and washed with PBS to remove unbound cells. The number of attached cells was counted by […]-GLO. […] On the other hand, peptide-conjugated collagen increased cell attachment relative to both uncoated and collagen-coated PEEK. At the highest concentration of peptide-modified collagen, 26% of the cells were attached, whereas only 9% of cells attached to the uncoated discs and 11% to the discs coated with unmodified collagen.

increase in fibroblast binding compared to unmodified collagen (human dermal fibroblasts; 0.0025 μg collagen, 5,000 fibroblasts per well, 30 min at 37° C.): 11 fold
fibroblast binding compared to unmodified collagen (human dermal fibroblasts; listed as SEQ ID NO: 4 peptide-modified collagen): Increased cell binding
fibroblast binding compared to unmodified collagen (human dermal fibroblasts; listed as cell binding peptide (SEQ ID NO: 4)-modified collagen): enhanced binding
increase in fluorescence signal compared to control (hMSCs [3]): ~100 fold
Substance: peptide-modified collagen: SEQ ID NO: 4 with spacer and lysine covalently attached to soluble bovine type I collagen via BS^3 crosslinking reagent (SSFWDVCQGDGTCYGGGSR-{spacer-Lys}; cysteine pairing not given here; reading uncertain; also: covalently attached to soluble bovine type I collagen via BS3 crosslinker, spacer not given here)
effect of shear stress on cell capture (HUVECs [1]; 30 minutes, laminar flow up to 12 dynes/cm^2): did not significantly affect cell capture
HUVECs captured compared to unmodified collagen (HUVECs [1]; coated glass cover-slips, PBS containing 2% FBS): about 3 fold
hMSCs retained on the walls of polypropylene plates (hMSCs [2]): ~80%
ECFCs captured in flow compared to unmodified collagen (ECFCs): about 20 fold
HUVECs retained compared to unmodified collagen after agitation (HUVECs [4]; 1 hour with agitation in PBS containing 2% FBS): 7 fold
increase in HUVEC retention over unmodified collagen (HUVECs [4]; 10,000 HUVECs per well, serum free medium, 30 min at 37° C.): 3 fold
cells attached to PEEK discs (hMSCs [5]): 26%

— patent publication US20110117169A1, “METHODS AND COMPOSITIONS FOR CAPTURE OF CELLS” (AFFINERGY, INC., priority 2009, published 2011)
